Laboratory results as given in patent publication US10383333B2, “Carbamate compound and use thereof” (SUMITOMO CHEMICAL COMPANY, LIMITED, priority 2015, dated 2019).

Test system: wheat rust fungus (Puccinia recondita)
Experiment: Test Example 2: wheat rust, foliar spray before inoculation
Format: in vivo
Settings: 500 ppm foliar spray on wheat (Shirogane), inoculated 5 days after spraying, formulated per Formulation Example 6

COC(=O)Nc1ccccc1COc1ccc(-c2ccccn2)cc1 [methyl N-(2-{[4-(pyridine-2-yl)phenoxy)methyl}phenyl)carbamate]
area of the lesion relative to untreated wheat: ≥ 70%
